We go through four compounds from patent US8771682B2, “Methods and compositions for reducing interleukin-4 or interleukin-13 signaling” (Technische Universtität Dresden, priority 2011, dated 2014).

Entries after “also recorded” stand apart in the source; their conditions may differ.

Holding throughout (format): cell-based, human
Test [1] deals with endogenous type I signaling (IL-4R, Stat6 phosphorylation) in Jurkat T lymphocytic leukemia cell line. Put plainly: pStat6 levels, endogenous type I IL-4 signaling in Jurkat cells. Conditions: 10 min pre-incubation with inhibitor plus 30 min ligand and inhibitor, chlorpromazine 2.8 μmol/l. Here is the method: In a second series of experiments the inventors assayed the type I IL-4R. The pStat6 levels were determined under the following conditions: • without ligand stimulation • incubation with IL-4 ligand for 30 min • 10 min pre-incubation with inhibitor plus 30 min incubation with ligand and inhibitor • 40 min pre-incubation with inhibitor followed by removal of the inhibitor and 30 min incubation with ligand (washout).
To assay endogenous type I signaling was analyzed in the Jurkat T lymphocytic leukemia cell line (ATCC TIB 152) showing a specific sensitivity to Rac/Pak dependent endocytosis.

Test [2] has as its system transferrin uptake in HEK cells expressing endogenous transferrin receptor. Description: Uptake of fluorescent transferrin (Alexa568-transferrin) by confocal fluorescence microscopy. Conditions: 25 μg/ml Alexa568-transferrin, compounds at working concentration (Dynasore 320 μmol/l), FIG. 14. Here is the method:
The inventors verified that the used compounds at the working concentration indeed blocked endocytosis by monitoring the uptake of 25 μg/ml fluorescent transferrin (Alexa568-transferrin, Invitrogen) with confocal fluorescence microscopy (FIG. 14). The experiment was performed with (untransformed) HEK-cells expressing endogenous transferrin receptor. As expected, dynamin dependent endocytosis could be blocked with Dynasore. […] As expected, inhibiting Rac1 and Pak 1/2 dependent actin polymerization by EHT-1864 and IPA-3 had no effect on transferrin uptake (FIG. 14).

Test [3] deals with type II IL-4 signaling (IL-4/IL-13, Stat6 phosphorylation). Put plainly: Stat6 phosphorylation by quantitative immunoblotting in Stat6-transfected HEK293T cells stimulated with IL-4 or IL-13 (type II signaling). Conditions: IL-4 3 ng/ml or IL-13 10 ng/ml, Dynasore 320 μmol/l, EHT-1864 50 μmol/l, IPA-3 10 μmol/l, FIG. 9. From the text: It was verified by RT-PCR that HEK293T (human epithelial cell line—ATCC number CRL-11268) cells expressed the endogenous type II IL-4 pathway components IL4-Ra, IL-13Ra1, Jak1, while Stat6 and the type I specific components IL-2Rg, and Jak3 were absent (FIG. 4 and FIG. 5). In HEK cells ectopically expressing human Stat6 under the cytomegalovirus promoter (pcDNA3.1-GS-Stat6, Gene Storm, Invitrogen) and stimulated with either IL-4 or IL-13, phosphorylated Stat6 became detectable by immunoblotting (FIG. 6). Co-transfected RNAi (Sigma Aldrich, #EHU-029151) mediated knockdown of the endogenous IL-13Ra1 subunit verified that this signaling activity was mediated by the type II receptor pathway (FIG. 7). Ectopically Stat6 is functional.
To test whether IL-4 signaling depends on compounds inhibiting Rac/Pak dependent endocytosis, HEK293T cells were transfected with a plasmid encoding human Stat6. Following transfection, cells were grown overnight, treated with inhibitors and/or ligands, lysed, proteins separated electrophoretically under denaturing conditions, and phosphorylation of Stat6 detected by quantitative immunoblotting (Antibodies from Santa Cruz, anti-STAT6 (M-20) #sc-981 and anti-phospho-STAT6 (py641.18, #sc-136019; FIG. 9).
If not indicated otherwise, human recombinant IL-4 (Invitrogen, #PHC0045) was used at 3 ng/ml, and human recombinant IL-13 (Cell Signaling, #8905) was used at 10 ng/ml.
If not indicated otherwise, the dynamin inhibitor Dynasore (Sigma Aldrich, #D7693) was used at 320 μmol/l, the Rac1 inhibitor EHT-1864 (Sigma Aldrich, 41E-1657) at 50 μmol/l, and the PAK inhibitor IPA-3 (Sigma Aldrich, #I-2285) at 10 μmol/l.

Test [4] has as its system loading of the signaling endosome with IL4-A647 in HEK293T transfected with IL-4Ra, IL-2Rg-eGFP and JAK3. Description: Translocation of labeled IL-4 (IL4-A647) into signaling endosomes, co-localization with IL-2Rg-eGFP. Here is the method:
The inventors created a fluorescently labeled IL-4 ligand (Alexa647—succinimidylester, Invitrogen)—further referred to as IL4-A647.
HEK293T were transfected with IL-4Ra, IL-2Rg-eGFP, and JAK3 as described above and cultured under standard culture conditions. The cells were incubated at 4° C. with the inhibitor (optional) and stained with 50 nmol/I IL4-A647 and washed with medium (DMEM without phenole red). The temperature release from 0° C. to 20° C. was defined as a reference point for the onset of endocytosis. Thenceforth, co-localization of eGFP with A647 was measured.
Applying the fluorescent IL-4-A647 under conditions in which endocytosis is suppressed (4° C.) allows to observe the kinetics of the translocation into the signaling endosomes. The endocytosis starts with a temperature release. FIG. 15 illustrates that in an initial state (timepoint 0 min, IL4-A647 channel) the plasma membrane of the IL-4Ra chain expressing cells is homogeneously stained. However, after several minutes, the A647 fluorescence a punctuated pattern appears in the IL4-A647 channel showing a high degree of colocalization to the GFP channel (FIG. 16). Association of the stained endosomes with the actin cortex and the plasma membrane is apparent in central confocal cross-sections through a central part of the cell (FIG. 17). […] Such a readout could therefore be used to detect IL-4 translocation inhibitors.

As for `CN(C)CCCN1c2ccccc2Sc2ccc(Cl)cc21` [chlorpromazine], the “IL-4 signaling (pStat6 level)” value was “no effect; also recorded: not IL-4 signaling” in test [1] and “no inhibitory effect” in test [1] (listed as Chlorpromazine). For the same compound, the transferrin uptake entry is listed as “blocked transferrin uptake” in test [2] and “inhibit transferrin uptake” in test [2] (listed as Chlorpromazine).

Turning to `O=c1cc(CN2CCOCC2)occ1OCCCCCSc1ccnc2cc(C(F)(F)F)ccc12` (racemic) [EHT-1864, 5-(5-(7-(Trifluoromethyl)quinolin-4-ylthio)pentyloxy)-2-(morpholinomethyl)-4H-pyran-4-one], in test [3], the Stat6 phosphorylation level result is “reduced the Stat6 phosphorylation level”. Further, in test [1], the “IL-4 signaling (pStat6 level)” value is listed as “significantly reduced”. In test [4] (50 μmol/l EHT-1864, bottom membrane, 21 min after temperature release, FIG. 18), the “transport of the Alexa647-labeled ligand” value was “reduced”. Besides, the “uptake of the labeled ligand” value in test [4] (50 μmol/l EHT-1864, central cross-section, 22 min after temperature release, FIG. 19) was “reduced uptake”. Also, the “loading of the signaling endosome with IL4-A647” value in test [4] (pre-incubation with 50 μmol/l EHT-1864, for up to 20 minutes after temperature release, FIG. 18) was “reduced significantly”. Further, the transferrin uptake entry in test [2] was “no effect”.

Regarding `Oc1ccc2ccccc2c1SSc1c(O)ccc2ccccc12` [IPA-3, 1,1′-Dithiodi-2-naphthtol], the Stat6 phosphorylation level entry in test [3] is “reduced the Stat6 phosphorylation level”. Besides, the “IL-4 signaling (pStat6 level)” value in test [1] is “significantly reduced”. For the same compound, the transferrin uptake entry in test [2] was “no effect”.

`O=C(N/N=C/c1ccc(O)c(O)c1)c1cc2ccccc2cc1O` [Dynasore]: in test [3], the Stat6 phosphorylation level entry was “reduced the Stat6 phosphorylation level; also recorded: prevented Stat6 phosphorylation”. Moreover, in test [1], the “IL-4 signaling (pStat6 level)” value was “significantly reduced”. In test [2], the transferrin uptake entry was “blocked transferrin endocytosis; also recorded: inhibit transferrin uptake”.
